Here are results for two compounds from article PMC7179302, “Lead Optimization of Dehydroemetine for Repositioned Use in Malaria” (Antimicrobial Agents and Chemotherapy, 2020).

Usually IC50 stands for the concentration needed to halve the response being measured.

Experiment [1] deals with male gametocytes in P. falciparum strain NF54. The experiment in a line: Dual gamete formation assay, male gametocytes (exflagellation). The class given is cell-based. Conditions: Plasmodium falciparum, 48 h incubation. As for the experimental part:
A bioassay was performed to assess the malaria transmission-blocking potential of compounds on P. falciparum strain NF54 by estimating their ability to prevent male mature gametocytes from progressing to male microgametes or/and to inhibit female gamete activation, as indicators of gametocyte functionality. The NF54 strain was selected for its increased ability to produce gametocytes under in vitro conditions ([45]). The activation of male gametocytes into mature microgametes is evaluated by the process of exflagellation (extrusion of rapidly waving flagellum-like microgametes from the infected erythrocyte). The activation of female gametocytes is evaluated based on the specific expression of the P. falciparum s25 (Pfs25) protein at the surface of the female activated gametes ([46]). […]
Asexual cultures of P. falciparum strain NF54 parasites were used to seed gametocyte cultures at 0.5% parasitemia, 4% hematocrit in a 50-ml total volume under 3% O2, 5% CO2, 92% N2 gas. […] Plates were analyzed to detect exflagellation centers. […] Then, plates were analyzed to detect female activated gametes. Activation of male gametes was detected based on light changes provoked by flagellar movements that caused movement of surrounding cells. A 10-frame video was taken and then analyzed to determine these changes in cell position based on changes in pixels. […]

Experiment [2] concerns K1 strain P. falciparum, unsynchronized cultures. The experiment in a line: IC50 speed assay (time course) using unsynchronized cultures. The class given is cell-based, Plasmodium falciparum. Conditions: for 24-h IC50 / Time by which the IC50 was reached: unsynchronized cultures; for 24-h IC50: 24 h exposure; for Time by which the IC50 was reached: IC50 speed assay. As for the experimental part:
Following drug efficacy experiments, 150-μl amounts from the control and drug-treated wells on a 96-well plate were transferred to microcentrifuge tubes, and samples were washed once with phosphate-buffered saline (PBS). The supernatant was removed, and samples were incubated in the dark at room temperature for 20 min following the addition of 1 ml of 5× SYBR green solution (prepared by adding 5 μl of 10,000× SYBR green to 10 ml PBS). After staining, the samples were centrifuged for 1 min at 14,000 rpm and the supernatant was discarded. Samples were resuspended in 250 μl of 0.37% formaldehyde fixation solution prepared by diluting 36.5% formaldehyde (Sigma, UK) with PBS to the specified final concentration. The samples were placed in the refrigerator and incubated at 4°C for 15 min. Subsequently, PBS was used to wash the samples 3 times, and finally, the samples were suspended in 1 ml PBS. Parasitemia was determined by measuring SYBR green fluorescence using the FITC channel of the BD FACSVerse flow cytometer system (blue laser; excitation laser line, 488 nm, with excitation maximum of 494 nm and emission maximum of […]) and cell size (forward scatter [FSC-A]). Fifty thousand events were recorded, in three replicates for each. Fluorescence events in drug-treated samples were compared with those in their infected and uninfected blood counterparts and gated accordingly to obtain the percentages of parasitemia.
The IC50 speed assay was used to determine the speeds of action of the emetine analogues. Unsynchronized cultures of K1 strain P. falciparum were used, and parasites were grown in the presence of (−)-R,S-dehydroemetine and (−)-S,S-dehydroisoemetine for three incubation periods of 24 h, 48 h, and 72 h. The assays were analyzed by determining SYBR green fluorescence as described above.
The results for the infected-blood controls were set at 100% for normalization, and percentages of parasitemia for drug-treated samples were calculated relative to the results for the infected controls. For IC50 values, GraphPad Prism 5.0 was used to further process the data. IC50 values were calculated using nonlinear regression (GraphPad Prism 5.0) by using log-transformed drug concentrations plotted against the dose response. The log(inhibitor) versus normalized response-variable slope option was used for IC50 calculation. Emetine dihydrochloride was used as a control drug to validate the method.

In experiment [3] the test system is K1 strain of P. falciparum. The experiment in a line: IC50 determination against K1 strain of P. falciparum, SYBR green-based assay, 72 h. Conditions: Plasmodium falciparum, K1, 72 h, read-out: IC50 against K1 strain of P. falciparum. The class given is cell-based. As for the experimental part: Based on the anecdotal evidence, two synthetic analogues of emetine dihydrochloride, (−)-R,S-dehydroemetine and (−)-S,S-dehydroisoemetine, were synthesized. Experiments to test drug efficacy were set up, and (−)-R,S-dehydroemetine was tested in 2-fold serial dilutions from 12.5 nM to 200 nM. A dose-response experiment was set up on synchronized ring stage cultures of the K1 strain of P. falciparum to be read at 72 h. […] (−)-S,S-dehydroisoemetine was tested in 2-fold serial dilutions from 0.625 μM to 10 μM. […]
Ring stage parasites were diluted to 0.5 to 1% parasitemia, 2.5% hematocrit (in a 96-well-plate format, 200-μl final well volume) and treated for 72 h. Dose-response parasitemia was determined using the SYBR green-based flow cytometer or plate reader method previously optimized in the laboratory ([14]).
Following drug efficacy experiments, 150-μl amounts from the control and drug-treated wells on a 96-well plate were transferred to microcentrifuge tubes, and samples were washed once with phosphate-buffered saline (PBS). […] Parasitemia was determined by measuring SYBR green fluorescence using the FITC channel of the BD FACSVerse flow cytometer system (blue laser; excitation laser line, 488 nm, with excitation maximum of 494 nm and emission maximum of […]) and cell size (forward scatter [FSC-A]). Fifty thousand events were recorded, in three replicates for each. […]

Structures can show the parent of a compound that is named as a salt.

On to `CCC1=C(C[C@H]2NCCc3cc(OC)c(OC)cc32)C[C@H]2c3cc(OC)c(OC)cc3CCN2C1` [(−)-R,S-dehydroemetine, (S)-2-((R)-6,7-dimethoxy-1,2,3,4-tetrahydro-isoquinolin-1-ylmethyl)-3-ethyl-9,10-dimethoxy-1,6,7,11b-tetrahydro-4H-pyrido[2,1-a]isoquinoline * dihydrobromide], for which the IC50 was 0.43 µM in experiment [1] and 71 ± 6.1 nM in experiment [3]. Further, the “% Parasitaemia” value in experiment [2] (25 nM, 24 hours) amounted to 99.25%; in experiment [2] (25 nM, 48 hours) it was 95.85%; in experiment [2] (25 nM, 72 hours), 98.62%; in experiment [2] (50 nM, 24 hours), 93.88%; in experiment [2] (50 nM, 48 hours) it was 69.64%; in experiment [2] (50 nM, 72 hours), 89.44%. Also, the “% Parasitaemia” value is given as 89.00% in experiment [2] (100 nM, 24 hours); 30.44% in experiment [2] (100 nM, 48 hours); 17.06% in experiment [2] (100 nM, 72 hours); 77.03% in experiment [2] (200 nM, 24 hours); 22.37% in experiment [2] (200 nM, 48 hours); 13.20% in experiment [2] (200 nM, 72 hours). The “% Parasitaemia” value in experiment [2] (400 nM, 24 hours) is recorded as 72.09%; in experiment [2] (400 nM, 48 hours), 19.29%; in experiment [2] (400 nM, 72 hours) it was 11.63%. In addition, the “24-h IC50” value in experiment [2] is on record as “could not be reached within 24 h”. For the same compound, the “Time by which the IC50 was reached” value in experiment [2] is ≤ 48 h.

For `CCC1=C(C[C@@H]2NCCc3cc(OC)c(OC)cc32)C[C@H]2c3cc(OC)c(OC)cc3CCN2C1` [(−)-S,S-dehydroisoemetine, (S)-2-((S)-6,7-dimethoxy-1,2,3,4-tetrahydro-isoquinolin-1-ylmethyl)-3-ethyl-9,10-dimethoxy-1,6,7,11b-tetrahydro-4H-pyrido[2,1-a]isoquinoline * dihydrobromide], the results for the IC50 in experiment [1] and in experiment [3] were > 10 µM and 2070 ± 260 nM, respectively. Further, the “% Parasitaemia” value in experiment [2] (0.63 μM, 24 hours) came out at 100.96%; in experiment [2] (0.63 μM, 48 hours) it was 83.33%; in experiment [2] (0.63 μM, 72 hours), 102.96%; in experiment [2] (1.25 μM, 24 hours) it was 95.69%; in experiment [2] (1.25 μM, 48 hours), 69.00%; in experiment [2] (1.25 μM, 72 hours) it was 74.67%. The “% Parasitaemia” value in experiment [2] (2.5 μM, 24 hours) came out at 100.62%; in experiment [2] (2.5 μM, 48 hours), 45.41%; in experiment [2] (2.5 μM, 72 hours), 31.88%; in experiment [2] (5 μM, 24 hours) it was 92.15%; in experiment [2] (5 μM, 48 hours), 30.49%; in experiment [2] (5 μM, 72 hours), 22.99%. The “% Parasitaemia” value in experiment [2] (10 μM, 24 hours) is 79.97%; in experiment [2] (10 μM, 48 hours), 24.20%; in experiment [2] (10 μM, 72 hours), 13.33%. Besides, the “24-h IC50” value in experiment [2] is “could not be reached within 24 h”. Further, the “Time by which the IC50 was reached” value in experiment [2] is recorded as ≤ 48 h.
